# Data published in patent publication US12310973B2, “Administration and dosage of diaminophenothiazines” (WisTa Laboratories Ltd., priority 2016, dated 2025).
# Test system: mild to moderate AD patients
# Experiment: Phase 3 trial in mild to moderate AD: MRI volumetry (LVV, TPV, HV)
# Assay type: in vivo, human
# Conditions: for HV, Estimate (difference vs control) / LVV, Estimate (difference vs control) / TPV, Estimate (difference vs control): Table 5
# From the text: The co-primary efficacy outcomes were change from baseline in 11-item Alzheimer's Disease Assessment Scale—cognitive subscale (ADAS-cog) and the 23-item Alzheimer's Disease Cooperative Study Activities of Daily Living (ADCS-ADL). Magnetic resonance imaging (MRI) volumetry was chosen as the principal secondary outcome to support a potential effect on the rate of brain atrophy (Fox et al., 1997; Ridha et al., 2008). Change in Lateral Ventricular Volume (LVV), as measured by the Ventricular Boundary Shift Integral (VBSI), (Salloway et al., 2014) was chosen as the principal measure as it provides high-contrast boundaries for measurement and is less affected by motion artefacts than whole brain or smaller structures. Key supportive topographical measures (temporo-parietal (TPV) and hippocampal volume (HV)) are also reported.
# ADAS-cog and ADCS-ADL assessments were performed at baseline and every 13 weeks thereafter, with change at 65 weeks (the final on-treatment visit) the primary efficacy measures. These were repeated at the final off-treatment follow-up visit at Week 69. Secondary efficacy measures included Clinical Global Impression of Change (ADCS-CGIC, administered by an independent rater); MMSE, administered on screening and at Weeks 26, 52, 65 and 69. Brain MRI scans were performed at baseline/screening and every 13 weeks using a standardized protocol including volumetric 3D T1-weighted data consistent with ADNI recommendations, FLAIR, T2* Gradient Echo and T2-weighted sequences. Diffusion-Weighted Imaging was also available at screening in order to exclude patients with co-existing pathology that would lead to a diagnosis other than probable AD. Each site was first qualified ensuring standardised acquisition protocol, patient handling and data management. MRI data were centrally collected by Imaging Corelab (Bioclinica). Data were centrally reviewed by RadMD for eligibility and safety (Amyloid Related Imaging Abnormalities, or ARIA monitoring) on an on-going basis. Volumetric 3DT1 data were also reviewed centrally in order to measure (using a boundary shift integral (BSI) technique; Salloway et al., 2014) change in LVV as principal secondary outcome measure, and as exploratory endpoints temporo-parietal volume (TPV), whole brain volume (WBV) and hippocampal volume (HV, estimated as the mean of left and right) (Wischik et al., 2016). Additional exploratory endpoints included change in glucose uptake in the temporal lobe, assessed using ^18F-fluorodeoxyglucose positron emission tomography (FDG-PET) performed during screening and at Weeks 39 and 65 in a subset of patients in sites with this imaging capability. Changes in cerebrospinal fluid biomarkers of Alzheimer's disease, including total tau, phospho-tau and amyloid-β1-42, were explored using cerebrospinal fluid samples that were collected at baseline and Week 65 (or early termination visit). Lumbar punctures were performed only in subjects who were themselves able to provide consent specifically for this procedure.
# The primary efficacy analyses of change from baseline in ADAS-cog and ADCS-ADL scores were conducted in the modified intent-to-treat (mITT) population (all randomised patients who took at least one dose of study treatment and had at least one post-baseline, on-treatment efficacy assessment). The primary analysis was specified as a mixed model repeated-measures (MMRM) analysis with an unstructured covariance matrix and no imputation for missing data. The model included categorical visit (5 levels corresponding to assessments at weeks 13, 26, 39, 52 and 65), treatment (3 levels corresponding to control, 75 mg b.i.d. and 125 mg b.i.d.), treatment-by-visit interaction, and the stratification variables as additive terms, and baseline ADAS-cog or ADCS-ADL as a covariate. A similar exploratory analysis was specified in the Statistical Analysis Plan (SAP) with the AChEI/Mem covariate as an interaction term with treatment and as an interaction term with visit. […]
# [1] = Table 5, AChEI/Mem as interaction term, control arm (4 mg b.i.d.)
# [2] = Table 6 post-hoc, control-arm subjects, 4 mg b.i.d. + AChEI/Mem
# [3] = Table 6 post-hoc, 4 mg b.i.d. alone vs 4 mg b.i.d. + AChEI/Mem
# [4] = Table 7, mild AD, 4 mg b.i.d. + AChEI/Mem (control-arm subjects)
# [5] = Table 7, mild AD, 4 mg b.i.d. alone vs 4 mg b.i.d. + AChEI/Mem
# [6] = Table 7, mild AD, 75 mg b.i.d. alone vs control arm as randomised
# [7] = Table 7, mild AD, 125 mg b.i.d. alone vs control arm as randomised
# [8] = Table 7, mild AD, control arm as randomised (4 mg b.i.d.)
# [9] = Table 7, moderate AD, 4 mg b.i.d. + AChEI/Mem (control-arm subjects)
# [10] = Table 7, moderate AD, 4 mg b.i.d. alone vs 4 mg b.i.d. + AChEI/Mem
# [11] = Table 7, moderate AD, 75 mg b.i.d. alone vs control arm as randomised
# [12] = Table 7, moderate AD, 125 mg b.i.d. alone vs control arm as randomised
# [13] = Table 7, moderate AD, control arm as randomised (4 mg b.i.d.)
structure (smiles),measurement,setting,value
"CN(C)c1ccc2c(c1)Sc1cc(N(C)C)ccc1N2 [LMTM, leuco-methythioninium bis(hydromethanesulfonate)]",Increase in TPV relative to control,75 mg b.i.d. monotherapy,31%±8%
same,Reduction in LVV (progression of atrophy) relative to control,75 mg b.i.d. monotherapy,38%±9%
same,Increase in TPV relative to control,125 mg b.i.d. monotherapy,26%±8%
same,Reduction in LVV (progression of atrophy) relative to control,125 mg b.i.d. monotherapy,33%±9%
same,"HV, Estimate (change from baseline)",[1],−115.3 mm^3
same,"LVV, Estimate (change from baseline)",[1],"7,187 mm^3"
same,"TPV, Estimate (change from baseline)",[1],−1529 mm^3
same,"HV, Estimate (difference vs control)",75 mg b.i.d. + AChEI/Mem,−2.0 mm^3
same,"LVV, Estimate (difference vs control)",75 mg b.i.d. + AChEI/Mem,−273 mm^3
same,"TPV, Estimate (difference vs control)",75 mg b.i.d. + AChEI/Mem,−39 mm^3
same,"HV, Estimate (difference vs control)",75 mg b.i.d. monotherapy,9.5 mm^3
same,"LVV, Estimate (difference vs control)",75 mg b.i.d. monotherapy,"−2,707 mm^3"
same,"TPV, Estimate (difference vs control)",75 mg b.i.d. monotherapy,472 mm^3
same,"HV, Estimate (difference vs control)",125 mg b.i.d. + AChEI/Mem,−7.4 mm^3
same,"LVV, Estimate (difference vs control)",125 mg b.i.d. + AChEI/Mem,−306 mm^3
same,"TPV, Estimate (difference vs control)",125 mg b.i.d. + AChEI/Mem,−12 mm^3
same,"HV, Estimate (difference vs control)",125 mg b.i.d. monotherapy,20.0 mm^3
same,"LVV, Estimate (difference vs control)",125 mg b.i.d. monotherapy,"−2,347 mm^3"
same,"TPV, Estimate (difference vs control)",125 mg b.i.d. monotherapy,405 mm^3
same,"HV, Estimate (change from baseline)",[2],−117.8 mm^3
same,"LVV, Estimate (change from baseline)",[2],"7,426 mm^3"
same,"TPV, Estimate (change from baseline)",[2],"−1,596 mm^3"
same,"HV, Estimate (difference)",[3],19.5 mm^3
same,"LVV, Estimate (difference)",[3],"−1,894 mm^3"
same,"TPV, Estimate (difference)",[3],534 mm^3
same,"HV, Estimate (change from baseline)",[4],−119.5 mm^3
same,"LVV, Estimate (change from baseline)",[4],"6,167 mm^3"
same,"TPV, Estimate (change from baseline)",[4],"−1,398 mm^3"
same,"HV, Estimate (difference)",[5],46.7 mm^3
same,"LVV, Estimate (difference)",[5],"−2,655 mm^3"
same,"TPV, Estimate (difference)",[5],722 mm^3
same,"HV, Estimate (difference)",[6],16.9 mm^3
same,"LVV, Estimate (difference)",[6],"−2,549 mm^3"
same,"TPV, Estimate (difference)",[6],392 mm^3
same,"HV, Estimate (difference)",[7],40.5 mm^3
same,"LVV, Estimate (difference)",[7],"−2,695 mm^3"
same,"TPV, Estimate (difference)",[7],439 mm^3
same,"HV, Estimate (change from baseline)",[8],−115.8 mm^3
same,"LVV, Estimate (change from baseline)",[8],"5,789 mm^3"
same,"TPV, Estimate (change from baseline)",[8],"−1,309 mm^3"
same,"HV, Estimate (change from baseline)",[9],−116.6 mm^3
same,"LVV, Estimate (change from baseline)",[9],"8,143 mm^3"
same,"TPV, Estimate (change from baseline)",[9],"−1,697 mm^3"
same,"HV, Estimate (difference)",[10],−2.4 mm^3
same,"LVV, Estimate (difference)",[10],−940 mm^3
same,"TPV, Estimate (difference)",[10],370 mm^3
same,"HV, Estimate (difference)",[11],3.6 mm^3
same,"LVV, Estimate (difference)",[11],"−2,251 mm^3"
same,"TPV, Estimate (difference)",[11],469 mm^3
same,"HV, Estimate (difference)",[12],2.2 mm^3
same,"LVV, Estimate (difference)",[12],"−1,703 mm^3"
same,"TPV, Estimate (difference)",[12],293 mm^3
same,"HV, Estimate (change from baseline)",[13],−116.9 mm^3
same,"LVV, Estimate (change from baseline)",[13],"8,023 mm^3"
same,"TPV, Estimate (change from baseline)",[13],"−1,649 mm^3"
same,Hippocampus volume benefit (increase),"mild patients, LMTM monotherapy",35.5 mm^3
